Measurements as given in patent US8377911B2, “Diuretics” (Merck Sharp & Dohme Corp., priority 2009, dated 2013).

System: Male beagle dogs
Assay: canine telemetry protocol, blood pressure reduction efficacy
Format: in vivo
Conditions: telemetered male beagle dogs, 3 mg/kg, oral gavage
Procedure: Compounds of the invention were evaluated for blood pressure reduction efficacy using the following canine telemetry protocol.
Male beagle dogs (approximately 1-3 years old) with a body weight of between 10 and 16 kg were surgically implanted with DSI radiotelemetry devices (model: TL11M2-D70-PCT). Briefly, under an inhalant anesthesia, isoflurane/oxygen mixture (1-3.5%/to effect), the body of the telemetry device was positioned and secured intra-abdominally. Subsequently, the arterial catheter of the telemetry device was passed subcutaneously to the inguinal area and introduced into the femoral artery and advanced to the level of the descending aorta. The catheter was secured with 2-0 silk ligatures. The muscle and underlying fascia was closed over the catheter using absorbable suture and the skin was closed using non-absorbable suture. The animals were allowed a minimum recovery period of 2 weeks between surgery and the evaluation of test compounds.
Compound evaluation consisted of a 3 day paradigm at a 3 mg/kg dose. On the first day, no compounds were administered during a 24 hour period of baseline data collection. Blood pressure and heart rate data were collected continuously for one minute periods at 10 minute intervals. On the days of compound administration half the animals received test article with the other half receiving the vehicle used for compound formulation. All test materials were administered by oral gavage in a volume of 1 mL/kg. Data are expressed either as raw values (mm Hg or beats per minute) or as the change from baseline (average value for about 12 hours in low activity period prior to dosing). Change is SBP (systolic blood pressure) and PP (pulse pressure) over time is shown below: […]

Structure (SMILES) | ΔPP (pulse pressure), change from baseline, 1-6 h [mm Hg] | ΔSBP (systolic blood pressure), change from baseline, 1-6 h [mm Hg] | ΔPP (pulse pressure), change from baseline, 6-12 h [mm Hg] | ΔSBP (systolic blood pressure), change from baseline, 6-12 h [mm Hg] | ΔPP (pulse pressure), change from baseline, 12-18 h [mm Hg] | ΔSBP (systolic blood pressure), change from baseline, 12-18 h [mm Hg]
CCCCON=[N+]([O-])N1CCC[C@H]1C(=O)Oc1c(C)ncc2c1CO[C@H]2c1ccc(Cl)cc1 (stereo in doubt) [Example 1, (3S)-3-(4-Chlorophenyl)-6-methyl-1,3-dihydrofuro[3,4-c]pyridin-7-yl 1-[(Z)-butoxy-NNO-azoxy]-L-prolinate] | −14.0 | −15.4 | −6.4 | −6.2 | −3.2 | −0.6
Cc1ncc2c(c1OC(=O)[C@@H]1CCCN1[N+]([O-])=NOCC(C)C)CO[C@H]2c1ccc(Cl)cc1 (stereo in doubt) [Example 5, (3S)-3-(4-Chlorophenyl)-6-methyl-1,3-dihydrofuro[3,4-c]pyridin-7-yl 1-[(Z)-2-methylpropoxy-NNO-azoxy]-L-prolinate] | −3.6 | −2.4 | −1.7 | −2.6 | −2.6 | −2.8
CCCC(C)ON=[N+]([O-])N1CCC[C@H]1C(=O)Oc1c(C)ncc2c1CO[C@H]2c1ccc(Cl)cc1 (stereo in doubt) [Example 9, (3S)-3-(4-Chlorophenyl)-6-methyl-1,3-dihydrofuro[3,4-c]pyridin-7-yl 1-[(Z)-pentan-2-yloxy-NNO-azoxy]-L-prolinate] | −10.6 | −11.8 | −5.2 | −6.6 | −2.5 | 1.0
CC[C@H](C)CON=[N+]([O-])N1CCC[C@H]1C(=O)Oc1c(C)ncc2c1CO[C@H]2c1ccc(Cl)cc1 (stereo in doubt) [Example 10, (3S)-3-(4-Chlorophenyl)-6-methyl-1,3-dihydrofuro[3,4-c]pyridin-7-yl 1-((Z)-{[(2S)-2-methylbutyl]oxy}-NNO-azoxy)-L-prolinate] | 0.6 | −5.3 | 3.4 | −0.9 | 3.8 | −3.1
Cc1ncc2c(c1OC(=O)[C@@H]1CCCN1[N+]([O-])=NOC1CCCCC1)CO[C@H]2c1ccc(Cl)cc1 (stereo in doubt) [Example 11, (3S)-3-(4-Chlorophenyl)-6-methyl-1,3-dihydrofuro[3,4-c]pyridin-7-yl 1-[(Z)-cyclohexyloxy-NNO-azoxy]-L-prolinate] | −6.9 | −9.3 | −2.3 | −3.3 | 0.9 | 3.9
CCCCO/N=[N+](\[O-])N1CCC(C(=O)Oc2c(C)ncc3c2CO[C@H]3c2ccc(Cl)cc2)CC1 [Example 12, (3S)-3-(4-Chlorophenyl)-6-methyl-1,3-dihydrofuro[3,4-c]pyridin-7-yl 1-[(Z)-butoxy-NNO-azoxy]piperidine-4-carboxylate] | −12 | −11 | −5.8 | −5.8 | 0.8 | 3.3
